Source: publication PMC12344197 (Bioactive Materials, 2025)
Where a SMILES comes first, the peptide text is derived from it. The star is where a group is joined. Succinyl(20-O-(20S)-CPT) = CC[C@@]1(OC(=O)CCC(=O)*)C(=O)OCc2c1cc1n(c2=O)Cc2cc3ccccc3nc2-1; Biotin = O=C1N[C@H]2[C@H](CS[C@H]2CCCCC(=O)*)N1

What was measured:
[1] = system: Red blood cells (RBCs); test: Hemolysis assay; format: cell-based, BALB/c mice; details: mouse RBC suspension in PBS, 2 h, OD540; n = 3
[2] = system: 4T1 cells; test: CCK-8 assay; format: cell-based; details: 20 μM, 4 h incubation, washed, n = 6; for cell viability, no laser: dark, further 24 h
[3] = Zeta potential; format: physicochemical; details: 10 μM in PBS pH 7.4

| SMILES | hemolysis [1] | cell viability, no laser [2] | zeta potential [3] | cell viability, + Laser ([2]; 808 nm laser 5 min 1 W cm−2, further 24 h, absence of biotin) [%] |
| --- | --- | --- | --- | --- |
| CC[C@@]1(OC(=O)CCC(=O)NCCCC[C@H](NC(=O)[C@H](Cc2ccccc2)NC(=O)[C@@H](N)Cc2ccccc2)C(=O)N[C@@H](CCCCNC(=O)CCCC[C@@H]2SC[C@@H]3NC(=O)N[C@@H]32)C(=O)O)C(=O)OCc2c1cc1n(c2=O)Cc2cc3ccccc3nc2-1 [FFKK-CPT, Phe-Phe-Lys(CPT)-Lys(Biotin)] (H-FFK(Succinyl(20-O-(20S)-CPT))K(Biotin)-OH) | no significant hemolysis |  |  |  |
| CC[C@@]1(O)C(=O)OCc2c1cc1n(c2=O)Cc2cc3ccccc3nc2-1 [Free CPT, camptothecin] |  | 49.3% |  |  |
| CN1C(=CC=C2CCCC(C=CC3=[N+](C)c4ccccc4C3(C)C)=C2Cl)C(C)(C)c2ccccc21.[Cl-] [free IR775, IR775] |  | above 80% | +23.9 mV | 38.3 |
